US7998983B2, “Substituted isoxazoles as fungicides” (Syngenta Limited, priority 2004, dated 2011)

How the values were obtained:
[1] = test system: Sclerotinia homoeocarpa (common name: dollar spot); experiment: Turf trial, dollar spot on creeping bentgrass; type: in vivo; conditions: creeping bentgrass plots; Compound 4 as 25% wetable powder at 2.2, 4.4, 8.8 g a.i. per 1000 square feet; mean disease <3.0% acceptable
Text: Penncross during the spring.

[2] = test system: soft red winter wheat cultivar Sisson; experiment: Cereal field trial, yield; type: in vivo; conditions: highest rate of Compound 4 (421 g a.i./ha)
Procedure: (§1) A field trial of Compound 4 was conducted on soft red winter wheat cultivar Sisson. Very dry weather gave rise to a low natural incidence of leaf rust (Puccinia recondita: PUCCRT) late in the trial. Compound 4 was applied as a 9.5% active ingredient (weight/weight) emulsifiable concentrate of the following formula (each weight/weight): 9.5% Compound 4, 9.5% m-Pyrol, 65% Surfadone LP-100, 6% Surfadone LP-300, 5% Toximul 3463F, and 5% Toximul 3464F. Rates of Compound 4 application were as follows (grams active ingredient per hectare: g a.i./ha): 140, 280 and 421.

[3] = test system: leaf rust (Puccinia recondita: PUCCRT); experiment: Cereal field trial, leaf rust on wheat; type: in vivo; conditions: winter wheat field trial; 9.5% emulsifiable concentrate; 140, 280 and 421 g a.i./ha; low natural incidence
Procedure: as §1

[4] = test system: creeping bentgrass cv. Penncross; experiment: Turf trial, turfgrass quality and phytotoxicity; conditions: creeping bentgrass plots inoculated with S. homoeocarpa; ratings >6.0 acceptable
Procedure: A fungicide trial was conducted on a 15-yr-old sward of creeping bentgrass cv. Penncross during the spring. The turfgrass was maintained using cultural practices similar to those used in maintenance of bentgrass golf greens in the southern United States. Treatments were arranged as plots (0.5×1.0 m) in a randomized complete block design with four replications. […] All other fungicides were applied according to their labels (Banner MAXX 1.3ME and Insignia 20WG). The turfgrass was inoculated with autoclaved tall fescue seed infested with Sclerotinia homoeocarpa (common name: dollar spot) six hours after application of the initial preventive treatments. The plots received approximately 0.24 inches of irrigation water daily at 1700 hour to ensure nightly foliar wetness for infection. The Horsfall-Barratt rating scale was used to visually estimate disease severity at approximately 7-day intervals from the initial application date. Turfgrass quality was assessed using a 0-9 scale where 0=a necrotic, thin foliar canopy and 9=a dark green, dense foliar canopy. Disease and quality values were subjected to analysis of variance and means were statistically separated using the Scott-Knott cluster analysis procedure.

Compound: OC(c1cccnc1)c1c(-c2ccc(Cl)cc2Cl)noc1-c1cccc(Cl)c1 (stereo not shown) [Compound 4, 5-(3-Chlorophenyl)-3-(2,4-dichlorophenyl)-4-[(3-pyridyl)hydroxymethyl]-isoxazole]
- Dollar spot disease severity / control (Horsfall-Barratt rating) [1]: effective control on dollar spot during most of the trial period
- Yield enhancement [2]: Yield enhancement was observed
- Control of leaf rust incidence [3]: good control of the rust incidence
- Turfgrass quality (0-9 scale) [4]: Highest quality ratings
